Data published in patent publication US12370235B2, “Synthetic, non-natural antimicrobial peptides inspired by Staphylococcus auricularis delta toxin” (University of Saskatchewan, priority 2021, dated 2025).
Ends that are not written are not given here.

How the values were obtained:
[1] = test system: Mannheimia haemolytica ATCC 33393; test: MIC, broth dilution; assay type: cell-based
Outline: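 Peptides (95% purity) in 2-fold dilution series were mixed with M. haemolytica diluted to OD 6×10^−4 in cation-adjusted Mueller Hinton broth and incubated standing overnight at 37 °C. MIC was the lowest concentration with no visible growth.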

C. albicans MYA-2876 = test: MIC, YPD broth; assay type: cell-based, Candida albicans; details: Table 8
Outline: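 Minimum inhibitory concentrations against Candida albicans were determined in YPD broth (10 g/L yeast extract, 20 g/L peptone, 20 g/L dextrose) using peptides of 95% purity. A 180 μl volume of diluted yeast was combined with 20 μl of peptide in a 2-fold dilution series in 96-well plates, with sterile water as control, then incubated standing overnight at 37° C.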

[2] = test system: Candida duobushaemulonii AR 392; test: MIC, YPD broth, CDC and FDA AR Candida isolate panel; assay type: cell-based; details: Table 9 top part: titrations from 1.56 to 100 μg/mL
Outline: (§1)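 Each isolate was diluted to an optical density of […] and combined with peptide at twofold stepwise concentrations. Plates then sat unshaken overnight at 37° C. Sterile water replaced peptide in control wells.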

Kodamae ohmeri AR 396 = test: as above; assay type: cell-based; details: Table 9 top part: titrations from 1.56 to 100 μg/mL
Outline: as §1

[3] = Circular dichroism spectroscopy; assay type: physicochemical; details: CD, 50% (v/v) TFE
Description: The δ-toxins and the PSMs are characterized as α-helical peptides that form amyloid fibers^48. Although the propensity of individual peptides to form amyloids is correlated to their cytotoxicity^49, the amyloid form is not directly implicated in cell membrane disruption^50. […] CD spectroscopy was used to investigate the secondary structure of a subset of peptides within the collection (FIG. 4A, Table 5). The STIP variants adopted α-helical forms in 50% (v/v) trifluoroethanol (TFE), though unlike the full-length S. auricularis δ-toxin, they were unstructured in water. […] Specifically, peptides characterized by the greatest and least α-helical content in TFE had MICs above the highest tested threshold.
Circular dichroism spectroscopy. Peptides were dissolved in water at concentrations between 0.3 and 0.5 mg/mL. CD spectra were recorded on an Applied Photophysics Chirascan Plus CD spectrophotometer at room temperature in a 0.1 cm path-length quartz cuvette. Spectra were recorded from 180 to 260 nm.

SspA protease = SspA protease (Staphylococcus aureus, UniProt P0C1U8); test: SspA protease treatment, LC/MS analysis; assay type: in vitro ADME; details: in vitro, 37° C., ˜5 hours
Method: (§2) SspA protease treatment. SspA protease was resuspended at 2 mg/mL in 100 mM HEPES, pH 7.8. Proteolysis was achieved by incubation of 50 μg PSMs at 37° C. for ˜5 hours with 0.2 mg/mL SspA. The antimicrobial activity of the proteolytic products were assayed by spotting a 5 μL (˜45 μg) from each treated peptide on each test microorganism as described above.
HPLC/MS analysis. High performance liquid chromatography coupled to mass spectrometry (HPLC-MS) was conducted to assess the proteolytic cleavage of synthetic PSMs by the SspA protease, as described above. Both treated samples and untreated controls were incubated at 37° C. for 5 hours, and then frozen until HPLC/MS analysis. An Agilent Infinity II 1260 HPLC outfitted with a Phenomenex Lune C5 column (4.6×150 mm, 5 μm) was used to separate the peptide fragments using a binary solvent system consisting of solvent A (water, 0.05% formic acid) and solvent B (acetonitrile, 0.05% formic acid) operating at 0.7 mL/min. A 5 μl volume (˜4.5 μg) of each sample was injected at 10% solvent B, followed by a two-step gradient elution from 10 to 50% solvent B in 30 minutes, then 50 to 100% B in 10 minutes. The HPLC was coupled to an Advion CMS(L) single quadrupole mass detector through an electrospray ionization source. A line splitter from the HPLC to ESI source was used to deliver sample to the mass detector at 0.3 mL/min. An Advion expression-L CMS detector was used at low temperature and fragmentation settings: capillary temperature: 135° C., capillary voltage 120 V, source voltage offset 20 V, source gas temperature 135° C. and ESI voltage 3500 V. The range of ions detected was between 100 and 2,000 m/z.

M. luteus ATCC 4698 = test: MIC, broth dilution; assay type: cell-based, Micrococcus luteus; details: Table 4; liquid broth
Method: MIC determination. MICs were measured using peptides with 95% purity. For bacterial studies, cation-adjusted Mueller Hinton (MH) broth was used as the growth medium whereas Yeast Peptone Dextrose (YPD; 10 g/L yeast extract, 20 g/L peptone, 20 g/L dextrose) was used for Candida spp. and other yeast. Microorganisms were diluted to an optical density of […] in MH or YPD broth and a 180 μl volume was mixed with 20 μl of peptide arrayed as a 2-fold dilution series in a flat-bottom 96-well microtitre plate. A control was performed using 20 μl of sterile water. Plates were incubated as standing cultures overnight at 37° C.
Determination of minimum inhibitory concentrations. The MICs were measured for bioactive peptides identified from the initial screen. For bacterial studies, cation-adjusted Mueller Hinton (MH) broth was used as the growth medium whereas YPD was used for C. albicans. Bacterial cultures were diluted to a OD value of 6×10^−4 in MH broth and a 180 μl volume was mixed with 20 μl of peptide arrayed as 2-fold dilution series in a 96-well plate. For the positive control, 20 μl of sterile water was used. Plates were incubated as standing cultures overnight at 37° C. The lowest peptide concentration that resulted no observed microbial growth after an overnight treatment was defined as the MIC.

S. aureus ATCC 29213 [4] = test: MIC, broth dilution; assay type: cell-based, Staphylococcus aureus; details: for MIC (μg/mL) S. aureus: liquid broth
Outline: (§3)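 Peptides (95% purity) were serially diluted 2-fold and mixed with bacteria diluted to OD 6×10^−4 in cation-adjusted Mueller Hinton broth. Standing cultures were incubated overnight at 37° C. MIC was the lowest peptide concentration with no observed growth.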

S. aureus ATCC 29213 [5] = test: Spot-on-lawn assay; assay type: cell-based, Staphylococcus aureus; details: 50 μg peptide spotted on agar
Method: Spot-on-lawn assay. For the initial screen, peptides of ≥70% purity were used. Each peptide was resuspended in sterile water to a concentration of 10 mg/ml. To determine antimicrobial activities a spot-on-lawn assay was performed. M. luteus and S. aureus were used as indicator strains. To prepare test organisms, the optical density (OD) of overnight cultures were measured and the organisms were diluted to an initial OD of 0.05 in soft nutrient agar (0.4% w/v) at 50° C. Next, 3 mL of soft agar containing a test organism was overlaid on a solid 1.5% w/v nutrient agar plate (LB). A total of 50 μg of each peptide was spotted on the inoculated surface and plates were incubated for 16 to 48 h before being examined for zones of inhibition.
as §2

[6] = test system: S. aureus ATCC 33592 (MRSA SCCmec type III); test: MIC, broth dilution; assay type: cell-based, Staphylococcus aureus; details: Table 5; STIP3 variants, highest concentration 100 μg/mL
Outline: as §3

[7] = test system: S. aureus ATCC BAA-1683 (MRSA SCCmec type IV); test: MIC, broth dilution; assay type: cell-based, Staphylococcus aureus; details: Table 5; STIP3 variants, highest concentration 100 μg/mL
Outline: as §3

[8] = test system: S. aureus ATCC BAA-2094 (MRSA SCCmec type V); test: MIC, broth dilution; assay type: cell-based, Staphylococcus aureus; details: Table 5; STIP3 variants, highest concentration 100 μg/mL
Outline: as §3

[9] = test system: S. aureus ATCC BAA-2313 (MRSA SCCmec type XI); test: MIC, broth dilution; assay type: cell-based, Staphylococcus aureus; details: Table 5; STIP3 variants, highest concentration 100 μg/mL
Outline: as §3

[10] = test system: S. aureus ATCC BAA-41 (MRSA SCCmec type II); test: MIC, broth dilution; assay type: cell-based, Staphylococcus aureus; details: Table 5; STIP3 variants, highest concentration 100 μg/mL
Outline: as §3

[11] = test system: S. aureus ATCC BAA-42 (MRSA SCCmec type VI); test: MIC, broth dilution; assay type: cell-based, Staphylococcus aureus; details: Table 5; STIP3 variants, highest concentration 100 μg/mL
Outline: as §3

[12] = test system: S. aureus ATCC BAA-44 (MRSA SCCmec type I); test: MIC, broth dilution; assay type: cell-based, Staphylococcus aureus; details: Table 5; STIP3 variants, highest concentration 100 μg/mL
Outline: as §3

Candida krusei AR 397 = test: MIC, YPD broth, CDC and FDA AR Candida isolate panel; assay type: cell-based; details: Table 9 top part: titrations from 1.56 to 100 μg/mL
Outline: as §1

[13] = test system: Saccharomyces cerevisiae AR 399; test: as above; assay type: cell-based; details: Table 9 top part: titrations from 1.56 to 100 μg/mL
Outline: as §1

[14] = test system: Saccharomyces cerevisiae AR 400; test: as above; assay type: cell-based; details: Table 9 top part: titrations from 1.56 to 100 μg/mL
Outline: as §1

[15] = Table 11, highest concentration 25 μg/mL

SspA protease, sequence (P0C1U8 69-336): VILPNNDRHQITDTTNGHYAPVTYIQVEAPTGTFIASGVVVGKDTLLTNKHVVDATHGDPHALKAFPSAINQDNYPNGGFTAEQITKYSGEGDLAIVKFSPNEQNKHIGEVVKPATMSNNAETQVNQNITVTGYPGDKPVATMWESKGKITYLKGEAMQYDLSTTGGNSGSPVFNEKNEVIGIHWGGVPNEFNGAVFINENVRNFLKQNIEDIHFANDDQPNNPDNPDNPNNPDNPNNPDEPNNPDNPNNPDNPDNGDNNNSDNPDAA

## H-MTKDIVETVGGLVKWILDTVKKFA [δ-toxin (df), reference compound]
[1]; [15]
  MIC (μg/mL) M. haemolytica: > (> symbol indicates that no inhibition was observed at the highest concentration of peptide tested: 25 μg/mL)
C. albicans MYA-2876
  MIC C. albicans MYA-2876: 100 µg/mL
[2]
  MIC (μg/mL) Candida duobushaemulonii AR 392: > (MIC values reported at the top of the table (above the double line) are based on titrations from 1.56 to 100 μg/mL)
Kodamae ohmeri AR 396
  MIC (μg/mL) Kodamae ohmeri AR 396: > (MIC values reported at the top of the table (above the double line) are based on titrations from 1.56 to 100 μg/mL)
[3]
  α helicity (%): 87%
SspA protease
  susceptibility to SspA cleavage: susceptible to SspA cleavage in vitro

## TVGGLVKWILDTVAKFA [K14A, TVGGLVKWILDTVAKFA]
M. luteus ATCC 4698
  MIC (μg/mL) M. luteus: 12.5 µg/mL
S. aureus ATCC 29213 [4]; Table 4
  MIC (μg/mL) S. aureus: >^b (> = >200 μg/mL (maximum concentration tested))
S. aureus ATCC 29213 [4]; Table 10
  MIC (μg/mL) S. aureus: >^b (the use of > indicates an MIC > 200 μg/mL; the maximum concentration tested)
[1]; Table 10, liquid broth
  MIC (μg/mL) M. haemolytica: 100 µg/mL
S. aureus ATCC 29213 [5]
  inhibition of S. aureus, spot-on-lawn: observed to inhibit S. aureus

## AVGGLVKWILDTVKKFA [T1A, AVGGLVKWILDTVKKFA]
M. luteus ATCC 4698
  MIC (μg/mL) M. luteus: 12.5 µg/mL
S. aureus ATCC 29213 [4]; Table 4
  MIC (μg/mL) S. aureus: 200 µg/mL
[1]; Table 10, liquid broth
  MIC (μg/mL) M. haemolytica: 50 µg/mL
S. aureus ATCC 29213 [5]
  inhibition of S. aureus, spot-on-lawn: observed to inhibit S. aureus

## TVGGLVKWILDTVKAFA [K15A, TVGGLVKWILDTVKAFA]
M. luteus ATCC 4698
  MIC (μg/mL) M. luteus: 25 µg/mL
S. aureus ATCC 29213 [4]; Table 4
  MIC (μg/mL) S. aureus: >^b (> = >200 μg/mL (maximum concentration tested))
S. aureus ATCC 29213 [4]; Table 10
  MIC (μg/mL) S. aureus: >^b (the use of > indicates an MIC > 200 μg/mL; the maximum concentration tested)
[1]; Table 10, liquid broth
  MIC (μg/mL) M. haemolytica: 50 µg/mL
S. aureus ATCC 29213 [5]
  inhibition of S. aureus, spot-on-lawn: observed to inhibit S. aureus

## TVGALVKWILDTVKKFA [G4A, TVGALVKWILDTVKKFA]
M. luteus ATCC 4698
  MIC (μg/mL) M. luteus: 12.5 µg/mL
S. aureus ATCC 29213 [4]; Table 4
  MIC (μg/mL) S. aureus: >^b (> = >200 μg/mL (maximum concentration tested))
S. aureus ATCC 29213 [4]; Table 10
  MIC (μg/mL) S. aureus: >^b (the use of > indicates an MIC > 200 μg/mL; the maximum concentration tested)
[1]; Table 10, liquid broth
  MIC (μg/mL) M. haemolytica: 50 µg/mL
S. aureus ATCC 29213 [5]
  inhibition of S. aureus, spot-on-lawn: observed to inhibit S. aureus

## TVGGLVKWILATVKKFA [STIP3-2, TVGGLVKWILATVKKFA]
M. luteus ATCC 4698
  MIC (μg/mL) M. luteus: 3.13 µg/mL
S. aureus ATCC 29213 [4]; Table 4
  MIC (μg/mL) S. aureus: 100 µg/mL
S. aureus ATCC 29213 [4]; Table 5, STIP3 variants, highest concentration 100 μg/mL
  MIC S. aureus ATCC 29213: 100 µg/mL
[6]
  MIC S. aureus ATCC 33592 (III): 50 µg/mL
[7]
  MIC S. aureus ATCC BAA 1683 (IV): 50 µg/mL
[8]
  MIC S. aureus ATCC BAA 2094 (V): 50 µg/mL
[9]
  MIC S. aureus ATCC BAA 2313 (XI): 50 µg/mL
[10]
  MIC S. aureus ATCC BAA 41 (II): 100 µg/mL
[11]
  MIC S. aureus ATCC BAA 42 (VI): 50 µg/mL
[12]
  MIC S. aureus ATCC BAA 44 (I): 100 µg/mL
[1]; Table 10, liquid broth
  MIC (μg/mL) M. haemolytica: 50 µg/mL
[1]; [15]
  MIC (μg/mL) M. haemolytica: 25 µg/mL
C. albicans MYA-2876
  MIC C. albicans MYA-2876: 100 µg/mL
[2]
  MIC (μg/mL) Candida duobushaemulonii AR 392: > (MIC values reported at the top of the table (above the double line) are based on titrations from 1.56 to 100 μg/mL)
Candida krusei AR 397
  MIC (μg/mL) Candida krusei AR 397: 50 µg/mL
Kodamae ohmeri AR 396
  MIC (μg/mL) Kodamae ohmeri AR 396: 100 µg/mL
[13]
  MIC (μg/mL) Saccharomyces cerevisiae AR 399: 50 µg/mL
[14]
  MIC (μg/mL) Saccharomyces cerevisiae AR 400: 100 µg/mL
S. aureus ATCC 29213 [5]
  inhibition of S. aureus, spot-on-lawn: observed to inhibit S. aureus
[3]
  α helicity (%): 50%
